# Target: Rhesus PDE2A3 (Macaca mulatta, UniProt B3VTJ2)
# Assay: PDE2 fluorescence polarization (IMAP FP) inhibition assay, rhesus enzyme
# Format: biochemical, rhesus macaque
# Conditions: Rhesus PDE2, Lab A, at 1 uM
# Experimental: The activity of the compounds in accordance with the present invention as PDE2 inhibitors may be readily determined using a fluorescence polarization (FP) methodology (Huang, W., et al., J. Biomol Screen, 2002, 7: 215).
# In a typical experiment the PDE2 inhibitory activity of the compounds of the present invention was determined in accordance with the following experimental method. Rhesus PDE2A3 was amplified from rhesus macaque brain cDNA (Biochain Institute, Hayward, Calif.) using primers based on human PDE2A sequence (accession NM_002599.3) where the forward primer containing a Kozak consensus was 5′-[…]-3′ and the reverse primer was 5′-[…]-3′. Amplification with Easy-A High-Fidelity PCR cloning enzyme (Stratagene, La Jolla, Calif.) was 95° C. for 2 minutes followed by thirty three cycles of 95° C. for 40 seconds, 52° C. for 30 seconds, and 72° C. for 2 minutes 48 seconds. Final extension was 72° C. for 7 minutes. The PCR product was TA cloned into pcDNA3.3-TOPO (Invitrogen, Carlsbad, Calif.) according to standard protocol. A consensus sequence was developed from multiple clones and then deposited into GenBank (EU812167). AD293 cells (Stratagene, La Jolla, Calif.) with 70-80% confluency were transiently transfected with rhesus PDE2A3/pcDNA3.3-TOPO using Lipofectamine 2000 according to manufacturer specifications (Invitrogen, Carlsbad, Calif.). Cells were harvested 48 hours post-transfection and lysed by sonication (setting 3, 10×5 sec pulses) in a buffer containing 20 mM HEPES pH 7.4, 1 mM EDTA and Complete Protease Inhibitor Cocktail Tablets (Roche, Indianapolis, Ind.). Lysate was collected by centrifugation at 75,000×g for 20 minutes at 4° C. and supernatant utilized for evaluation of PDE2 activity. The fluorescence polarization assay for cyclic nucleotide phosphodiesterases was performed using an IMAP® FP kit supplied by Molecular Devices, Sunnyvale, Calif. (product # R8139). […] Assays were performed at room temperature in 384-well microtiter plates with an incubation volume of 20.2 μL. Solutions of test compounds were prepared in DMSO and serially diluted with DMSO to yield 8 μL of each of 10 solutions differing by 3-fold in concentration, at 32 serial dilutions per plate. […] 0% of inhibition is determined by using DMSO (1% final concentrations).
# A Labcyte Echo 555 (Labcyte, Sunnyvale, Calif.) is used to dispense 200 nL from each well of the titration plate to the 384 well assay plate. Ten microliters of a solution of enzyme (1/2000 final dilution from aliquots; sufficient to produce 20% substrate conversion) was added to the assay plate. Next 10 uL of a separate solution of the substrate FAM-labeled cAMP (50 nM final concentration product # R7506 from Molecular Devices) and the activator cGMP (1 uM final concentration), prepared in the assay buffer (10 mM Tris HCl, pH 7.2, 10 mM MgCl2, 0.05% NaN3 0.01% Tween-20, and 1 mM DTT) was added to the assay plate and shaken to mix. The reaction is allowed to proceed at room temperature for 60 minutes. A binding solution is then made from the kit components, comprised of 80% Solution A, 20% Solution B and binding reagent at a volume of 1/600 the total binding solution. The enzymatic reaction is stopped by addition of 60 μL of the binding solution to each well of the assay plates and the plates are sealed and shaken for 30 seconds. The plate was incubated at room temperature for at least one hour prior to determining the fluorescence polarization (FP). The parallel and perpendicular fluorescence of each well of the plate was measured using a Tecan Genios Pro plate reader (Tecan, Switzerland) or Perkin Elmer EnVision™ plate reader (Waltham, Mass.). Fluorescence polarization (mP) was calculated from the parallel (S) and perpendicular (P) fluorescence of each sample well and the analogous values for the median control well, containing only substrate (So and Po), using the following equation: Polarization (mP)=1000*(S/So−P/Po)/(S/So+P/Po).
# Rhesus PDE2A3, sequence (B3VTJ2 1-941): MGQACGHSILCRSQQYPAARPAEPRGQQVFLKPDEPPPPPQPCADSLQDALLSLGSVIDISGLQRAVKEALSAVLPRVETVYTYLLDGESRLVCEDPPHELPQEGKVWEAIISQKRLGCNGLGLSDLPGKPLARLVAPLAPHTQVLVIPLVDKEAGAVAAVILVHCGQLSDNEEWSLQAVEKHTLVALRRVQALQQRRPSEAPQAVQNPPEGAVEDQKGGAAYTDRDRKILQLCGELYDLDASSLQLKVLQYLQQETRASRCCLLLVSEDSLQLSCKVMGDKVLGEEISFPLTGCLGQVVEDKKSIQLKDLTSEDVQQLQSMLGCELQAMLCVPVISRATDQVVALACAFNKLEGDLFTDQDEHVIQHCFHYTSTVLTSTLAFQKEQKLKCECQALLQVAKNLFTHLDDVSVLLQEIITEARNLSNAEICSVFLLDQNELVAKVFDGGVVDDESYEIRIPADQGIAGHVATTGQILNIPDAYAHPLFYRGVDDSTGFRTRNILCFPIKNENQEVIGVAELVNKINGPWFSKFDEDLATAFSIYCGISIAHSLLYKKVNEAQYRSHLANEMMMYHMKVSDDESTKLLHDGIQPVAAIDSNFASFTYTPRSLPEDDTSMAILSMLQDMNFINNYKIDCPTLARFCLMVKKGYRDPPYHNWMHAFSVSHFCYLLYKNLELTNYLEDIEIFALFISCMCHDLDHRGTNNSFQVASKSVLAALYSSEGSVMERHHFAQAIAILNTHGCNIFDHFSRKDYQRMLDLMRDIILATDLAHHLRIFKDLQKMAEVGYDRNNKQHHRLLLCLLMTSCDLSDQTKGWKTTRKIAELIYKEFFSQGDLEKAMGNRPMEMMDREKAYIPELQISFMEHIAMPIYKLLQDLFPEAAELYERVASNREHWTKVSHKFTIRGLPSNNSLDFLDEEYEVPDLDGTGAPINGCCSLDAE
row,Compound,Rhesus PDE2 % inh. at 1 uM - Lab A
1,C[C@@H](NC(=O)c1cc(=O)[nH]c(-c2ccccc2)n1)c1ccc(C(F)(F)F)c2ccccc12 [Example 153],41 % inh.
2,O=C(NCc1c(Cl)cc(C(F)(F)F)cc1Cl)c1cc(=O)[nH]c(-c2ccccc2)n1 [Example 156],9 % inh.
3,"O=C(NC(c1ccccc1)c1ccc(C(F)(F)F)cc1)c1cc(=O)[nH]c(-c2ccccc2)n1 (stereo not drawn) [Example 162, 6-oxo-2-phenyl-N-{phenyl[4-(trifluoromethyl)phenyl]methyl}-1,6-dihydropyrimidine-4-carboxamide]",45 % inh.

# Same assay, conditions: Rhesus PDE2, Lab A; read-out: Rhesus PDE2 Ki (nM) - Lab A
row,Ki,Compound
1,3470 nM,"CC(NC(=O)c1cc(=O)[nH]c(-c2ncccn2)n1)c1ncc(C(F)(F)F)cn1 (stereo not drawn) [Example 105, 6-oxo-N-{1-[5-(trifluoromethyl)pyrimidin-2-yl]ethyl}-1,6-dihydro-2,2′-bipyrimidine-4-carboxamide]"
2,21 nM,"C[C@@H](NC(=O)c1cc(=O)[nH]c(-c2ncccn2)n1)c1ccc(CC(F)(F)F)cc1 [Example 107, 6-oxo-N-{(1R)-1-[4-(2,2,2-trifluoroethyl)phenyl]ethyl}-1,6-dihydro-2,2′-bipyrimidine-4-carboxamide]"
3,342 nM,"COc1cc(C(F)(F)F)ccc1[C@@H](C)NC(=O)c1cc(=O)[nH]c(-c2ncccn2)n1 [Example 109, N-{(1R)-1-[2-methoxy-4-(trifluoromethyl)phenyl]ethyl}-6-oxo-1,6-dihydro-2,2′-bipyrimidine-4-carboxamide]"
4,1110 nM,"COCc1nc(C(=O)NC(CO)c2ccc(C(F)(F)F)cc2)cc(=O)[nH]1 (stereo not drawn) [Example 112, N-{2-hydroxy-1-[4-(trifluoromethyl)phenyl]ethyl}-2-(methoxymethyl)-6-oxo-1,6-dihydropyrimidine-4-carboxamide]"
5,283 nM,"COCc1nc(C(=O)NC(C)(C)c2ccc(C(F)(F)F)cc2)cc(=O)[nH]1 [Example 124, 2-(methoxymethyl)-N-{1-methyl-1-[4-(trifluoromethyl)phenyl]ethyl}-6-oxo-1,6-dihydropyrimidine-4-carboxamide]"
6,715 nM,"Cc1nc(C(=O)NC(c2ccc(F)cc2)c2ccc(C(F)(F)F)cc2)cc(=O)[nH]1 (stereo not drawn) [Example 130, N-{(4-fluorophenyl)[4-(trifluoromethyl)phenyl]methyl}-2-methyl-6-oxo-1,6-dihydropyrimidine-4-carboxamide]"
7,826 nM,"COC(=O)c1ccc(C(C)(C)NC(=O)c2cc(=O)[nH]c(-c3ccccc3)n2)cc1 [Example 160, methyl 4-(1-methyl-1-{[(6-oxo-2-phenyl-1,6-dihydropyrimidin-4-yl)carbonyl]amino}ethyl)benzoate]"
8,> 1000 nM,"O=C(NC(c1ccccc1)c1ccc(C(F)(F)F)cc1)c1cc(=O)[nH]c(-c2ccccc2)n1 (stereo not drawn) [Example 162, 6-oxo-2-phenyl-N-{phenyl[4-(trifluoromethyl)phenyl]methyl}-1,6-dihydropyrimidine-4-carboxamide]"
9,467 nM,"C[C@@H](NC(=O)c1cc(=O)[nH]c(-c2ccccc2)n1)c1cccc(C(F)(F)F)c1 [Example 168, 6-oxo-2-phenyl-N-{(1R)-1-[3-(trifluoromethyl)phenyl]ethyl}-1,6-dihydropyrimidine-4-carboxamide]"
10,3420 nM,"CC(NC(=O)c1cc(=O)[nH]c(-c2ccccc2)n1)c1ccccc1C(F)(F)F (stereo not drawn) [Example 169, 6-oxo-2-phenyl-N-{1-[2-(trifluoromethyl)phenyl]ethyl}-1,6-dihydropyrimidine-4-carboxamide]"
11,2340 nM,"CC(NC(=O)c1cc(=O)[nH]c(-c2ccccc2)n1)c1ncc(C(F)(F)F)cn1 (stereo not drawn) [Example 170, 6-oxo-2-phenyl-N-{1-[5-(trifluoromethyl)pyrimidin-2-yl]ethyl}-1,6-dihydropyrimidine-4-carboxamide]"
12,2050 nM,"Cc1cc(C(F)(F)F)ccc1CNC(=O)c1cc(=O)[nH]c(-c2ccccc2)n1 [Example 180, N-[2-methyl-4-(trifluoromethyl)benzyl]-6-oxo-2-phenyl-1,6-dihydropyrimidine-4-carboxamide]"
13,485 nM,"O=C(NCc1ccc(C(F)(F)F)cc1Cl)c1cc(=O)[nH]c(-c2ccccc2)n1 [Example 181, N-[2-chloro-4-(trifluoromethyl)benzyl]-6-oxo-2-phenyl-1,6-dihydropyrimidine-4-carboxamide]"
14,1010 nM,"COc1cc(C(F)(F)F)ccc1[C@@H](C)NC(=O)c1cc(=O)[nH]c(-c2ccccc2)n1 [Example 188, N-{(1R)-1-[2-methoxy-4-(trifluoromethyl)phenyl]ethyl}-6-oxo-2-phenyl-1,6-dihydropyrimidine-4-carboxamide]"
15,915 nM,"O=C(NC(c1ccccc1)c1ccc(C(F)(F)F)cc1)c1cc(=O)[nH]c(C2CC2)n1 (stereo not drawn) [Example 196, 2-cyclopropyl-6-oxo-N-{phenyl[4-(trifluoromethyl)phenyl]methyl}-1,6-dihydropyrimidine-4-carboxamide]"
16,4320 nM,"CC(NC(=O)c1cc(=O)[nH]c(C2CC2)n1)c1ncc(C(F)(F)F)cn1 (stereo not drawn) [Example 203, 2-cyclopropyl-6-oxo-N-{1-[5-(trifluoromethyl)pyrimidin-2-yl]ethyl}-1,6-dihydropyrimidine-4-carboxamide]"
17,694 nM,"COc1ccc(C(NC(=O)c2cc(=O)[nH]c(C3CC3)n2)c2ccc(C(F)(F)F)cc2)cc1 (stereo not drawn) [Example 205, 2-cyclopropyl-N-{(4-methoxyphenyl)[4-(trifluoromethyl)phenyl]methyl}-6-oxo-1,6-dihydropyrimidine-4-carboxamide]"
18,24300 nM,"CN(Cc1cc(F)c(F)c(F)c1)C(=O)c1cc(=O)[nH]c(C2CC2)n1 [Example 206, 2-cyclopropyl-N-methyl-6-oxo-N-(3,4,5-trifluoromethyl)-1,6-dihydropyrimidine-4-carboxamide]"
19,291 nM,Cc1cc(C(F)(F)F)ccc1C(C)NC(=O)c1cc(=O)[nH]c(C2CC2)n1 (stereo not drawn) [Example 208]
20,17400 nM,C[C@H](c1ccc(C(F)(F)F)cc1)N(C)C(=O)c1cc(=O)[nH]c(C2CC2)n1 [Example 209]
21,967 nM,"COC(=O)c1ccc(C(C)(C)NC(=O)c2cc(=O)[nH]c(C3CC3)n2)cc1 [Example 215, methyl 4-(1-{[(2-cyclopropyl-6-oxo-1,6-dihydropyrimidin-4-yl)carbonyl]amino}-1-methylethyl)benzoate]"
22,247 nM,"COc1ccc([C@@H](C)NC(=O)c2cc(=O)[nH]c(C3CC3)n2)cc1 [Example 216, 2-cyclopropyl-N-[(1R)-1-(4-methoxyphenyl)ethyl]-6-oxo-1,6-dihydropyrimidine-4-carboxamide]"
23,10700 nM,"CC(NC(=O)c1cc(=O)[nH]c(C2CC2)n1)c1ccccc1C(F)(F)F (stereo not drawn) [Example 220, 2-cyclopropyl-6-oxo-N-{1-[2-(trifluoromethyl)phenyl]ethyl}-1,6-dihydropyrimidine-4-carboxamide]"
24,681 nM,"O=C(NCc1ccc(C2CC2)cc1)c1cc(=O)[nH]c(C2CC2)n1 [Example 221, 2-cyclopropyl-N-(4-cyclopropylbenzyl)-6-oxo-1,6-dihydropyrimidine-4-carboxamide]"
25,1020 nM,"COc1cc(C(F)(F)F)ccc1[C@H](C)NC(=O)c1cc(=O)[nH]c(C2CC2)n1 [Example 223, 2-cyclopropyl-N-{(1S)-1-[2-methoxy-4-(trifluoromethyl)phenyl]ethyl}-6-oxo-1,6-dihydropyrimidine-4-carboxamide]"
26,505 nM,"COc1cc(C(C)NC(=O)c2cc(=O)[nH]c(C3CC3)n2)ccc1C(F)(F)F (stereo not drawn) [Example 226, 2-cyclopropyl-N-{1-[3-methoxy-4-(trifluoromethyl)phenyl]ethyl}-6-oxo-1,6-dihydropyrimidine-4-carboxamide]"

row,Compound,Ki
1,C[C@@H](NC(=O)c1cc(=O)[nH]c(-c2ccccc2)n1)c1ccc(C(F)(F)F)c2ccccc12 [Example 153],> 1000 nM
2,O=C(NCc1c(Cl)cc(C(F)(F)F)cc1Cl)c1cc(=O)[nH]c(-c2ccccc2)n1 [Example 156],> 1000 nM

# Same assay, conditions: Rhesus PDE2, Lab B; read-out: Rhesus PDE2 Ki (nM) - Lab B
row,Compound,Ki
1,C[C@@H](NC(=O)c1cc(=O)[nH]c(-c2ccccc2)n1)c1ccc(C(F)(F)F)c2ccccc12 [Example 153],~1970 nM
2,"O=C(NC(c1ccccc1)c1ccc(C(F)(F)F)cc1)c1cc(=O)[nH]c(-c2ccccc2)n1 (stereo not drawn) [Example 162, 6-oxo-2-phenyl-N-{phenyl[4-(trifluoromethyl)phenyl]methyl}-1,6-dihydropyrimidine-4-carboxamide]",1000 nM

# — US9815796B2 (Merck Sharp & Dohme Corp., priority 2013, dated 2017)
